# Test results published in patent publication US8420657B2 (Novartis AG, priority 2008, dated 2013).
# Target: T1, GST-JAK2(808-1132) (Homo sapiens, UniProt O60674)
# T1 construct: GST-JAK2(808-1132); purchased Invitrogen (Carlsbad, USA) #4288
# Test: JAK2 kinase assay (Caliper mobility shift, LabChip 3000)
# Assay type: biochemical
# From the text: All four kinases of the JAK/TYK-kinase family were used as purified recombinant GST-fusion proteins, containing the active kinase domains. GST-JAK1 (866-1154), GST-JAK3(811-1124), and GST-TYK2(888-1187) were expressed and purified by affinity chromatography at the EPK biology unit. GST-JAK2(808-1132) was purchased from Invitrogen (Carlsbad, USA, #4288).
# The kinase assays were based on the Caliper mobility shift assay using the LabChip 3000 systems. This technology is similar to capillary electrophoresis and uses charge driven separation of substrate and product in a microfluidic chip.
# All kinase reactions were performed in 384 well microtiter plates in a total reaction volume of 18 μl. The assay plates were prepared with 0.1 μl per well of test compound in the appropriate test concentration, as described under the section “preparation of compound dilutions”. The reactions were started by combining 9 μl of substrate mix (consisting of peptide and ATP) with 9 μl of kinase dilution. The reactions were incubated for 60 minutes at 30° C. and stopped by adding 70 μl of stop buffer (100 mM Hepes, 5% DMSO, 0.1% Coating reagent, 10 mM EDTA, 0.015% Brij 35).
# Fluorescently labeled synthetic peptides were used as substrates in all reactions. A peptide derived from the sequence of IRS-1(IRS-1 peptide, SEQ ID NO: 1 FITC-Ahx-KKSRGDYMTMQIG-NH2) was used for JAK1 and TYK2 and a peptide named JAK3tide SEQ ID NO: 2 (FITC-GGEEEEYFELVKKKK-NH2) for JAK2 and JAK3. Specific assay conditions are described in Table1:
# The terminated reactions were transferred to the Caliper LabChip 3000 reader and the turnover of each reaction was measured by determining the substrate/product ratio.
# Test compounds were dissolved in DMSO (10 mM) and transferred into 1.4 mL flat bottom or V-shaped Matrix tubes carrying a unique 2D matrix chip by individual compound hubs. The numbers of these chips were distinctively linked to the individual compound identification numbers. The stock solutions were stored at −20° C. if not used immediately. For the test procedure the vials were defrosted and identified by a scanner whereby a working sheet was generated that guided the subsequent working steps. Compound dilutions were made in 96 well plates. This format enabled the assay of maximally 40 individual test compounds at 8 concentrations (single points) including 4 reference compounds. The dilution protocol included the production of pre-dilution plates, master plates and assay plates:
# Pre-dilution plates: 96 polypropylene well plates were used as pre-dilution plates. A total of 4 pre-dilution plates were prepared including 10 test compounds each on the plate positions A1-A10, one standard compound at A11 and one DMSO control at A12. All dilution steps were done on a HamiltonSTAR robot.
# Master plates: 100 μL of individual compound dilutions including standard compound and controls of the 4 “pre-dilution plates” were transferred into a 384 “master plate” including the following concentrations 1,820, […], 182, 54.6, 18.2, 5.46, 1.82 and 0.546 μM, respectively in 90% of DMSO.
# Assay plates: Identical assay plates were then prepared by pipetting 100 nL each of compound dilutions of the master plates into 384-well “assay plates”. In the following the compounds were mixed with 9 μL of assays components plus 9 μL enzyme corresponding to a 1:181 dilution steps enabling the final concentration of 10, 3.0, 1.0, 0.3, 0.1, 0.03, 0.01 and 0.003 μM, respectively. The preparation of the master plates were handled by the Matrix PlateMate Plus robot and replication of assay plates by the HummingBird robot.
# T1 sequence (O60674 808-1132): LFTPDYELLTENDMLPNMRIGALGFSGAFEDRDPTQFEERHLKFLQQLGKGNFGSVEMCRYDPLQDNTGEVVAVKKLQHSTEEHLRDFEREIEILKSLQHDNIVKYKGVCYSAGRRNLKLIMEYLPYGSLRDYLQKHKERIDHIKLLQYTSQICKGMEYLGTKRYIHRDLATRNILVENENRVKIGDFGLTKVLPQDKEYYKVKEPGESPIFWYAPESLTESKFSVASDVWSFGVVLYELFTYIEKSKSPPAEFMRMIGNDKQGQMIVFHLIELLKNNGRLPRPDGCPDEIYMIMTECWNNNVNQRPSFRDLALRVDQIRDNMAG
row,IC50 [nM],SMILES
1,< 3,"CN1CCN(Cc2ccc(Nc3ncc4ccn(-c5cc(F)c(C(=O)N6CCOCC6)c(F)c5)c4n3)cc2C(F)(F)F)CC1 [Example 204, (2,6-Difluoro-4-{2-[4-(4-methyl-piperazin-1-ylmethyl)-3-trifluoromethyl-phenylamino]-pyrrolo[2,3-d]pyrimidin-7-yl}-phenyl)-morpholin-4-yl-methanone]"
2,5,"CN1CCN(Cc2ccc(Nc3ncc4ccn(-c5cc(F)c(C(=O)N6CCOCC6)c(F)c5)c4n3)cc2)CC1 [Example 205, (2,6-Difluoro-4-{2-[4-(4-methyl-piperazin-1-ylmethyl)-phenylamino]-pyrrolo[2,3-d]pyrimidin-7-yl}-phenyl)-morpholin-4-yl-methanone]"
3,< 3,"O=C(c1c(F)cc(-n2ccc3cnc(Nc4ccc(CN5CCOCC5)cc4)nc32)cc1F)N1CCOCC1 [Example 206, {2,6-Difluoro-4-[2-(4-morpholin-4-ylmethyl-phenylamino)-pyrrolo[2,3-d]pyrimidin-7-yl]-phenyl}-morpholin-4-yl-methanone]"
4,< 3,"CN1CCN(c2cccc(Nc3ncc4ccn(-c5cc(F)c(C(=O)N6CCOCC6)c(F)c5)c4n3)c2)CC1 [Example 207, (2,6-Difluoro-4-{2-[3-(4-methyl-piperazin-1-yl)-phenylamino]-pyrrolo[2,3-d]pyrimidin-7-yl}-phenyl)-morpholin-4-yl-methanone]"
5,125,"Fc1cc(-n2ccc3cnc(Nc4ccccn4)nc32)cc(F)c1CN1CCOCC1 [Example 209, [7-(3,5-Difluoro-4-morpholin-4-ylmethyl-phenyl)-7H-pyrrolo[2,3-d]pyrimidin-2-yl]-pyridin-2-yl-amine]"
6,5.9,"Fc1cc(-n2ccc3cnc(Nc4ccncc4)nc32)cc(F)c1CN1CCOCC1 [Example 211, [7-(3,5-Difluoro-4-morpholin-4-ylmethyl-phenyl)-7H-pyrrolo[2,3-d]pyrimidin-2-yl]-pyridin-4-yl-amine]"
7,290,"Cc1ccc(Nc2ncc3ccn(-c4ccc(C(=O)N5CCOCC5)c(F)c4)c3n2)nc1C [Example 222, {4-[2-(5,6-Dimethyl-pyridin-2-ylamino)-pyrrolo[2,3-d]pyrimidin-7-yl]-2-fluoro-phenyl}-morpholin-4-yl-methanone]"
8,41.5,"O=C(c1ccc(-n2ccc3cnc(Nc4ccc(C(F)(F)F)nc4)nc32)cc1F)N1CCOCC1 [Example 227, {2-Fluoro-4-[2-(6-trifluoromethyl-pyridin-3-ylamino)-pyrrolo[2,3-d]pyrimidin-7-yl]-phenyl}-morpholin-4-yl-methanone]"
9,56.5,"N#Cc1ccc(Nc2ncc3ccn(-c4ccc(C(=O)N5CCOCC5)c(F)c4)c3n2)cn1 [Example 228, 5-{7-[3-Fluoro-4-(morpholine-4-carbonyl)-phenyl]-7H-pyrrolo[2,3-d]pyrimidin-2-ylamino}-pyridine-2-carbonitrile]"
10,46,"O=C(c1ccc(-n2ccc3cnc(Nc4ccc(C(F)(F)F)nc4)nc32)cc1)N1CCOCC1 [Example 236, Morpholin-4-yl-{4-[2-(6-trifluoromethyl-pyridin-3-ylamino)-pyrrolo[2,3-d]pyrimidin-7-yl]-phenyl}-methanone]"
11,< 3,C[C@@H]1CN(Cc2ccc(Nc3ncc4ccn(-c5cc(F)c(CN6CCOCC6)c(F)c5)c4n3)cc2)C[C@H](C)N1 [Example 254]
12,7,"CS(=O)(=O)c1ccc(-n2ccc3cnc(Nc4ccnc(N5CCNC6(CC6)C5)c4)nc32)cc1 [Example 275, [2-(4,7-Diaza-spiro[2.5]oct-7-yl)-pyridin-4-yl]-[7-(4-methanesulfonyl-phenyl)-7H-pyrrolo[2,3-d]pyrimidin-2-yl]-amine]"
13,120,"CN1CCN(c2ncc(Nc3ncc4ccn(-c5ccc(S(C)(=O)=O)cc5)c4n3)cn2)CC1 [Example 276, [7-(4-Methanesulfonyl-phenyl)-7H-pyrrolo[2,3-d]pyrimidin-2-yl]-[2-(4-methyl-piperazin-1-yl)-pyrimidin-5-yl]-amine]"
14,8.3,"CN1CCN(c2ccc(Nc3ncc4ccn(-c5ccc(C(O)C6CC6)cc5)c4n3)cn2)CC1 (centres unmarked) [Example 277, Cyclopropyl-(4-{2-[6-(4-methyl-piperazin-1-yl)-pyridin-3-ylamino]-pyrrolo[2,3-d]pyrimidin-7-yl}-phenyl)-methanol]"
15,4,"CC(O)c1ccc(-n2ccc3cnc(Nc4ccc(N5CCN(C)CC5)nc4)nc32)cc1 (centres unmarked) [Example 279, 1-(4-{2-[6-(4-Methyl-piperazin-1-yl)-pyridin-3-ylamino]-pyrrolo[2,3-d]pyrimidin-7-yl}-phenyl)-ethanol]"

# Second part, the molecule before the results:
row,SMILES,IC50 [nM]
1,"CS(=O)(=O)c1ccc(-n2ccc3cnc(Nc4ccc(N5CCNCC5)cc4)nc32)cc1 [Example 37, [7-(4-Methanesulfonyl-phenyl)-7H-pyrrolo[2,3-d]pyrimidin-2-yl]-(4-piperazin-1-yl-phenyl)-amine]",< 3
2,"CN1CCN(Cc2ccc(Nc3ncc4ccn(-c5ccc(S(C)(=O)=O)cc5)c4n3)cc2)CC1 [Example 38, [7-(4-Methanesulfonyl-phenyl)-7H-pyrrolo[2,3-d]pyrimidin-2-yl]-[4-(4-methyl-piperazin-1-ylmethyl)-phenyl]-amine]",4.5
3,"CC(C)(C)OC(=O)N1CCN(Cc2ccc(Nc3ncc4ccn(-c5ccc(S(C)(=O)=O)cc5)c4n3)cc2)CC1 [Example 45, 4-{4-[7-(4-Methanesulfonyl-phenyl)-7H-pyrrolo[2,3-d]pyrimidin-2-ylamino]-benzyl}-piperazine-1-carboxylic acid tert-butyl ester]",6.1
4,"CC(C)(C)OC(=O)N1CCCC1c1ccc(Nc2ncc3ccn(-c4ccc(S(C)(=O)=O)cc4)c3n2)cc1 (centres unmarked) [Example 46, 2-{4-[7-(4-Methanesulfonyl-phenyl)-7H-pyrrolo[2,3-d]pyrimidin-2-ylamino]-phenyl}-pyrrolidine-1-carboxylic acid tert-butyl ester]",38
5,"CS(=O)(=O)c1ccc(-n2ccc3cnc(Nc4ccc(C(=O)NCCO)cc4)nc32)cc1 [Example 51, N-(2-Hydroxy-ethyl)-4-[7-(4-methanesulfonyl-phenyl)-7H-pyrrolo[2,3-d]pyrimidin-2-ylamino]-benzamide]",< 3
6,"CS(=O)(=O)c1ccc(-n2ccc3cnc(Nc4ccc(CN5CCNCC5)cc4)nc32)cc1 [Example 52, [7-(4-Methanesulfonyl-phenyl)-7H-pyrrolo[2,3-d]pyrimidin-2-yl]-(4-piperazin-1-ylmethyl-phenyl)-amine]",< 3
7,"CS(=O)(=O)c1ccc(-n2ccc3cnc(Nc4ccc(F)cc4)nc32)cc1 [Example 55, (4-Fluoro-phenyl)-[7-(4-methanesulfonyl-phenyl)-7H-pyrrolo[2,3-d]pyrimidin-2-yl]-amine]",20
8,"CCN1CCCC1CNC(=O)c1ccc(-n2ccc3cnc(Nc4ccc(F)cc4)nc32)cc1 (centres unmarked) [Example 63, N-(1-Ethyl-pyrrolidin-2-ylmethyl)-4-[2-(4-fluoro-phenylamino)-pyrrolo[2,3-d]pyrimidin-7-yl]-benzamide]",73
9,"CC(C)(C)OC(=O)N1CCN(C(=O)c2ccc(Nc3ncc4ccn(-c5ccc(S(C)(=O)=O)cc5)c4n3)cc2)CC1 [Example 69, 4-{4-[7-(4-Methanesulfonyl-phenyl)-7H-pyrrolo[2,3-d]pyrimidin-2-ylamino]-benzoyl}-piperazine-1-carboxylic acid tert-butyl ester]",4.8
10,"Fc1cc(-n2ccc3cnc(Nc4cccc(CN5CCOCC5)c4)nc32)cc(F)c1CN1CCOCC1 [Example 198, [7-(3,5-Difluoro-4-morpholin-4-ylmethyl-phenyl)-7H-pyrrolo[2,3-d]pyrimidin-2-yl]-(3-morpholin-4-ylmethyl-phenyl)-amine]",< 3
11,"CN1CCN(Cc2ccc(Nc3ncc4ccn(-c5cc(F)c(CN6CCOCC6)c(F)c5)c4n3)cc2C(F)(F)F)CC1 [Example 200, [7-(3,5-Difluoro-4-morpholin-4-ylmethyl-phenyl)-7H-pyrrolo[2,3-d]pyrimidin-2-yl]-[4-(4-methyl-piperazin-1-ylmethyl)-3-trifluoromethyl-phenyl]-amine]",3.7
